Results reported in US6686382B2, “Sulfonamides and derivatives thereof that modulate the activity of endothelin” (Encysive Pharmaceuticals Inc., priority 1999, dated 2004).

Key:
[1] = test system: ETA receptors and ETB receptors; experiment: Endothelin binding inhibition, ETA (TE 671) and ETB (transfected COS7) receptors: selectivity; parameters: species or system human; conditions: antagonism of ETA receptors over ETB receptors
Source text: Compounds that are potential endothelin antagonists are identified by testing their ability to compete with ^125I-labeled ET-1 for binding to human ETA receptors or ETB receptors present on isolated cell membranes. The effectiveness of the test compound as an antagonist or agonist of the biological tissue response of endothelin can also be assessed by measuring the effect on endothelin induced contraction of isolated rat thoracic aortic rings. The ability of the compounds to act as antagonists or agonists for ETB receptors can be assess by testing the ability of the compounds are to inhibit endothelin-1 induced prostacyclin release from cultured bovine aortic endothelial cells.
A. Endothelin Binding Inhibition—Binding Test #1: Inhibition of Binding to ETA Receptors
TE 671 cells (ATCC Accession No. HTB 139) express ETA receptors. These cells were grown to confluence in T-175 flasks. Cells from multiple flasks were collected by scraping, pooled and centrifugedfor 10 min at 190×g. The cells were resuspended in phosphate buffered saline (PBS) containing 10 mM EDTA using a Tenbroeck homogenizer. The suspension was centrifuged at 4° C. at 57,800×g for 15 min, the pellet was resuspended in 5 ml of buffer A (5 mM HEPES buffer, pH 7.4 containing aprotinin (100 KIU/ml)) and then frozen and thawed once. 5 ml of Buffer B (5 mM HEPES Buffer, pH 7.4 containing 10 mM MnCl2 and 0.001% deoxyribonuclease Type 1) was added, the suspension mixed by inversion and then incubated at 37° C. for 30 minutes. The mixture was centrifuged at 57,800×g as described above, the pellet washed twice with buffer A and then resuspended in buffer C (30 mM HEPES buffer, pH 7.4 containing aprotinin (100 KIU/ml) to give a final protein concentration of 2 mg/ml and stored at −70° C. until use.
The membrane suspension was diluted with binding buffer (30 mM HEPES buffer, pH 7.4 containing 150 mM NaCl, 5 mM MgCl2, 0.5% Bacitracin) to a concentration of 8 μg/50 μl. ^125I-endothelin-1 (3,000 cpm, […]) was added to 50 μL of either: (A) endothelin-1 (for non specific binding) to give a final concentration 80 nM); (B) binding buffer (for total binding); or (C) a test compound (final concentration 1 nM to 100 μM). The membrane suspension (50 μL), containing up to 8 μg of membrane protein, was added to each of (A), (B), or (C). Mixtures were shaken, and incubated at 4° C. for 16-18 hours, and then centrifuged at 4° C. for 25 min at 2,500×g. Alternatively, the incubation was conducted at 24° C. […] This, must be kept in mind when comparing IC50 concentrations among compounds provided herein.
The supernatant, containing unbound radioactivity, was decanted and the pellet counted on a Genesys multiwell gamma counter. The degree of inhibition of binding (D) was calculated according to the following equation: [formula]
B. Endothelin Binding Inhibition—Binding Test #2: Inhibition of Binding to ETB Receptors
COS7 cells were transfected with DNA encoding the ETB receptor, The resulting cells, which express the human ETB receptor, were grown to confluence in T-150 flasks. Membrane was prepared as described above. The binding assay was performed as described above using the membrane preparation diluted with binding buffer to a concentration of 1 μg/50 μl.
Briefly, the COS7 cells, described above, that had been transfected with DNA encoding the ETB receptor and express the human ETB receptor on their surfaces were grown to confluence in T-175 flasks. […]

[2] = Pharmacokinetic properties (oral availability, elimination half-life, Cmax); assay type: in vivo; conditions: for half-life: blood, read-out: t½ elim. (converted)
Source text: As used herein, bioavailability or oral availability refers to the rate and extent of absorption. Methods for determining bioavailability or oral availability are well known to those of skill in the art. For example, bioavailability or oral availability of any of the compounds described herein can be determined empirically by administration of the compound to an animal, followed by taking blood samples over time and measuring the blood concentration of the compound. In vivo half life (t1/2) is defined as the time it takes for the concentration of the compound in the blood to be reduced by one-half. Estimations of the area under the curve for intravenous administration can be used to estimate the area under the curve for oral administration, yielding bioavailability data. See, e.g., Milo Gibal (1991) Biopharmaceutics and Pharmacology, 4th edition (Lea and Sediger).

half-life [2]	SMILES	Selectivity (IC50 for ETB/IC50 for ETA) [1]	Cmax ([2]; in vivo)	t½ elim. ([2]; in vivo)	Oral Availability ([2]; in vivo)
–	Cc1cc2c(cc1CC(=O)c1sccc1S(=O)(=O)Nc1onc(C)c1Cl)OCO2 [N-(4-chloro-3-methyl-5-isoxazolyl)-2-{[3,4-(methylenedioxy)-6-methylphenyl)acetyl]-thiophene-3-sulfonamide, reference compound]	20,950	133 µg/mL	4.5 h	43.6%
6 h	CC(=O)c1cc(C)cc(C)c1NC(=O)c1sccc1S(=O)(=O)Nc1onc(C)c1C [Compound 7, N-(2-acetyl-4,6-dimethylphenyl)-3-{[(3,4 dimethyl-5-isoxazolyl)amino]sulfonyl}-2-thiophenecarboxamide]	441,000	157 µg/mL	–	148.1%
2.6 h	Cc1cc(C)c(NC(=O)c2sccc2S(=O)(=O)Nc2onc(C)c2Cl)c(Cl)c1 [Compound 34, N-(2-chloro-4,6-dimethylphenyl)-3-{[(4-chloro-3-methyl-5-isoxazolyl)amino]sulfonyl}2-thiophenecarboxamide]	166,000	49.5 µg/mL	–	–

SMILES	half-life [2]	Selectivity (IC50 for ETB/IC50 for ETA) [1]	Cmax ([2]; in vivo)	t½ elim. ([2]; in vivo)	Oral Availability ([2]; in vivo)
Cc1cc(C)c(NC(=O)c2sccc2S(=O)(=O)Nc2onc(C)c2Cl)c(S(C)(=O)=O)c1 [Compound 42, 3-{[(4-chloro-3-methyl-5-isoxazolyl)amino]sulfonyl)-N-[2,4-dimethyl-6-(methylsulfonyl)phenyl]-2-thiophenecarboxamide]	1.5 h	456,000	10.3 µg/mL	–	–
